In PubChem BioAssay AID330 (DTP/NCI, 2004):
Values joined by “and” are separate entries in the source; they are usually repeats but may differ in a detail not shown here. Equal entries are not always repeated. Toxic doses and inconclusive results are not listed.

Test system: P388 leukemia ip, CD2F1 mice, survival T/C
Assay: NCI In Vivo Anticancer Drug Screen. Data for tumor model P388 Leukemia (intraperitoneal) in CD2F1 (CDF1) mice
Conditions: endpoint: median survival time, higher = longer survival
How it was run: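 Mice carrying the transplanted tumor received test compound or vehicle. Survival was recorded in each group, and the value is the treated-group measurement divided by that of the vehicle-treated control group.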

[1] = dose: 50.0 mg/kg/injection, schedule: Q04DX003 (ip), vehicle: saline
[2] = dose: 50.0 mg/kg/injection, schedule: Q01DX005 (ip), vehicle: Klucel (hydroxypropylcellulose) (HPC)
[3] = dose: 100.0 mg/kg/injection, schedule: Q01DX005 (ip), vehicle: Klucel (hydroxypropylcellulose) (HPC)
[4] = dose: 200.0 mg/kg/injection, schedule: Q01DX005 (ip), vehicle: Klucel (hydroxypropylcellulose) (HPC)
[5] = dose: 50.0 mg/kg/injection, schedule: Q01DX009 (ip), vehicle: Klucel (hydroxypropylcellulose) (HPC)
[6] = dose: 100.0 mg/kg/injection, schedule: Q01DX009 (ip), vehicle: Klucel (hydroxypropylcellulose) (HPC)
[7] = dose: 50.0 mg/kg/injection, schedule: Q01DX005 (ip), vehicle: saline
[8] = dose: 100.0 mg/kg/injection, schedule: Q01DX005 (ip), vehicle: saline
[9] = dose: 200.0 mg/kg/injection, schedule: Q01DX005 (ip), vehicle: saline
[10] = dose: 60.0 mg/kg/injection, schedule: Q01DX005 (ip), vehicle: saline with Tween-80
[11] = dose: 25.0 mg/kg/injection, schedule: Q01DX009 (ip), vehicle: saline with Tween-80

For O=c1oc2cccc(O)c2s1, the T/C (dose: 12.5 mg/kg/injection, schedule: Q01DX001 (ip), vehicle: saline) was 97 % of control, the T/C (dose: 25.0 mg/kg/injection, schedule: Q01DX001 (ip), vehicle: saline) was 99 % of control and the T/C (dose: 50.0 mg/kg/injection, schedule: Q01DX001 (ip), vehicle: Klucel (hydroxypropylcellulose) (HPC)) was 106 % of control. For the same molecule, the T/C (dose: 50.0 mg/kg/injection, schedule: Q01DX001 (ip), vehicle: saline) was 98 % of control.

For CCN(CC)CCOC(=O)c1c(C)cc(C)cc1C, the T/C (dose: 25.0 mg/kg/injection, schedule: Q04DX003 (ip), vehicle: saline) was 100 % of control, the T/C [1] was 106 % of control and the T/C (dose: 100.0 mg/kg/injection, schedule: Q04DX003 (ip), vehicle: saline) was 93 % of control.

For COc1c(NC=O)c2c(c([N+](=O)[O-])c1OC)C(=O)OC2, the T/C [2] was 102 % of control, the T/C [3] was 99 % of control and the T/C [4] was 98 % of control.

For O=C(O)CCN1C(=S)CSC1=S, the T/C [5] was 107 % of control, the T/C [6] was 103 % of control and the T/C (dose: 200.0 mg/kg/injection, schedule: Q01DX009 (ip), vehicle: Klucel (hydroxypropylcellulose) (HPC)) was 100 % of control.

In the case of C=C1C(=O)OC2C1C(OC(=O)/C(C)=C\C)CC(C)=C1C(=O)C3OC3(C)C12O (stereo not given), the T/C (dose: 12.5 mg/kg/injection, schedule: Q01DX005 (ip), vehicle: saline + alcohol) is reported as 115 % of control, the T/C (dose: 25.0 mg/kg/injection, schedule: Q01DX005 (ip), vehicle: saline + alcohol) is reported as 116 % of control and the T/C (dose: 50.0 mg/kg/injection, schedule: Q01DX005 (ip), vehicle: saline + alcohol) is reported as 115 % of control.

With FC(F)(F)C1(C(F)(F)F)OS2(OC(C(F)(F)F)(C(F)(F)F)c3ccccc32)c2ccccc21 the T/C (dose: 100.0 mg/kg/injection, schedule: Q04DX003 (ip), vehicle: Klucel (hydroxypropylcellulose) (HPC)) was 91 % of control, the T/C (dose: 200.0 mg/kg/injection, schedule: Q04DX003 (ip), vehicle: Klucel (hydroxypropylcellulose) (HPC)) was 91 % of control and the T/C (dose: 400.0 mg/kg/injection, schedule: Q04DX003 (ip), vehicle: Klucel (hydroxypropylcellulose) (HPC)) was 92 % of control.

With O=c1c2ccccc2nc(-c2ccccc2)n1-c1nccs1 the T/C (dose: 50.0 mg/kg/injection, schedule: Q01DX005 (ip), vehicle: saline with Tween-80) was 86 % of control, the T/C (dose: 100.0 mg/kg/injection, schedule: Q01DX005 (ip), vehicle: saline with Tween-80) was 89 % of control and the T/C (dose: 200.0 mg/kg/injection, schedule: Q01DX005 (ip), vehicle: saline with Tween-80) was 91 % of control.

Cn1ccc(N)nc1=O was tested, and the T/C [7] was 101 % of control, the T/C [8] was 107 % of control and the T/C [9] was 104 % of control.

Cc1c(O)c2ccccc2c2c1sc(NCCO)[n+]2C was tested, and the T/C (dose: 15.0 mg/kg/injection, schedule: Q01DX005 (ip), vehicle: saline with Tween-80) was 100 % of control, the T/C (dose: 30.0 mg/kg/injection, schedule: Q01DX005 (ip), vehicle: saline with Tween-80) was 105 % of control and the T/C [10] was 98 % of control and 99 % of control.

In the case of Cc1cc(N)c2cc(NC(=O)CCCCCC(=O)Nc3ccc4nc(C)cc(N)c4c3)ccc2n1, the T/C (dose: 6.25 mg/kg/injection, schedule: Q01DX009 (ip), vehicle: saline with Tween-80) is reported as 100 % of control, the T/C (dose: 12.5 mg/kg/injection, schedule: Q01DX009 (ip), vehicle: saline with Tween-80) is reported as 110 % of control and the T/C [11] is reported as 118 % of control.

For Cc1ccc2c(c1)nc(Cl)n2Cc1ccccc1, the T/C [2] was 100 % of control, the T/C [3] was 102 % of control and the T/C [4] was 102 % of control.

N#CS.N=C=S.O=N[O-].[Co+3].[NH2-].[NH2-].[NH2-].[NH2-] was tested, and the T/C [11] was 102 % of control, the T/C (dose: 50.0 mg/kg/injection, schedule: Q01DX009 (ip), vehicle: saline with Tween-80) was 89 % of control and the T/C (dose: 100.0 mg/kg/injection, schedule: Q01DX009 (ip), vehicle: saline with Tween-80) was 108 % of control.

With CC(O)CN(CCN(CC(C)O)CC(C)O)CC(C)O.[Cl-].[Co+2] (stereo not given) the T/C (dose: 12.5 mg/kg/injection, schedule: Q01DX009 (ip), vehicle: saline) was 108 % of control and 111 % of control, the T/C (dose: 25.0 mg/kg/injection, schedule: Q01DX009 (ip), vehicle: saline) was 107 % of control and 110 % of control and the T/C (dose: 50.0 mg/kg/injection, schedule: Q01DX009 (ip), vehicle: saline) was 111 % of control and 112 % of control and 119 % of control. The T/C (dose: 100.0 mg/kg/injection, schedule: Q01DX009 (ip), vehicle: saline) was 123 % of control and 92 % of control.

For FC(F)(F)C1(C(F)(F)F)[O][Sb]([c]2ccccc2)([c]2ccccc2)([c]2ccccc2)[O]1, the T/C [5] was 100 % of control and the T/C [6] was 101 % of control.

CCO/C=C1/N=C(Cc2ccccc2)OC1=O was tested, and the T/C (dose: 60.0 mg/kg/injection, schedule: Q01DX005 (ip), vehicle: saline + Tween-80 + alcohol) was 100 % of control and the T/C (dose: 120.0 mg/kg/injection, schedule: Q01DX005 (ip), vehicle: saline + Tween-80 + alcohol) was 94 % of control.

With C=C(C)c1c2ccccc2cc2cccc(Sc3ccc(C(C)(C)C)cc3)c12 the T/C (dose: 100.0 mg/kg/injection, schedule: Q04DX002 (ip), vehicle: saline with Tween-80) was 101 % of control, the T/C (dose: 200.0 mg/kg/injection, schedule: Q04DX002 (ip), vehicle: saline with Tween-80) was 96 % of control and the T/C (dose: 400.0 mg/kg/injection, schedule: Q04DX002 (ip), vehicle: saline with Tween-80) was 92 % of control.

In the case of CC(=O)OCC1OC(n2cccnc2=O)C(OC(C)=O)C1OC(C)=O (stereo not given), the T/C [7] is reported as 107 % of control, the T/C [8] is reported as 107 % of control and the T/C [9] is reported as 107 % of control. The T/C (dose: 400.0 mg/kg/injection, schedule: Q01DX005 (ip), vehicle: saline) was 102 % of control.

In the case of Cc1ccc(NC(=S)NNC(=S)NNc2ccccc2)cc1C, the T/C [3] is reported as 95 % of control, the T/C [4] is reported as 101 % of control and the T/C (dose: 400.0 mg/kg/injection, schedule: Q01DX005 (ip), vehicle: Klucel (hydroxypropylcellulose) (HPC)) is reported as 106 % of control.

In the case of COc1ccc(/C=C2/C(=O)ON=C2C)cc1, the T/C [10] is reported as 108 % of control, the T/C (dose: 120.0 mg/kg/injection, schedule: Q01DX005 (ip), vehicle: saline with Tween-80) is reported as 110 % of control and the T/C (dose: 240.0 mg/kg/injection, schedule: Q01DX005 (ip), vehicle: saline with Tween-80) is reported as 109 % of control.

In the case of NC(N)=NCCC(Cl)C(=O)O (stereo not given), the T/C [7] is reported as 101 % of control, the T/C [8] is reported as 102 % of control and the T/C [9] is reported as 97 % of control.

In the case of CO[C@H](/C(C)=C/C=C/C(C)=C/c1coc(C)n1)[C@H](C)[C@H]1C[C@@H](O)[C@@]2(C)O[C@H]2/C=C/[C@@H](C)[C@@H]2C[C@@H](CC(=O)O2)C[C@H]2O[C@@H]2C(=O)O1, the T/C (dose: 0.1 mg/kg/injection, schedule: Q01DX005 (ip), vehicle: Klucel (hydroxypropylcellulose) (HPC)) is reported as 150 % of control, the T/C (dose: 0.12 mg/kg/injection, schedule: Q01DX005 (ip), vehicle: Klucel (hydroxypropylcellulose) (HPC)) is reported as 150 % of control and the T/C (dose: 0.14 mg/kg/injection, schedule: Q01DX005 (ip), vehicle: Klucel (hydroxypropylcellulose) (HPC)) is reported as 152 % of control and 160 % of control. The T/C (dose: 0.18 mg/kg/injection, schedule: Q01DX005 (ip), vehicle: Klucel (hydroxypropylcellulose) (HPC)) was 160 % of control, the T/C (dose: 0.24 mg/kg/injection, schedule: Q01DX005 (ip), vehicle: Klucel (hydroxypropylcellulose) (HPC)) was 166 % of control and the T/C (dose: 0.45 mg/kg/injection, schedule: Q01DX005 (ip), vehicle: Klucel (hydroxypropylcellulose) (HPC)) was 171 % of control and 184 % of control and 195 % of control. The T/C (dose: 0.67 mg/kg/injection, schedule: Q01DX005 (ip), vehicle: Klucel (hydroxypropylcellulose) (HPC)) was 181 % of control and 191 % of control, the T/C (dose: 10.0 micrograms/kg/injection, schedule: Q01DX005 (ip), vehicle: Klucel (hydroxypropylcellulose) (HPC)) was 104 % of control and the T/C (dose: 20.0 micrograms/kg/injection, schedule: Q01DX005 (ip), vehicle: Klucel (hydroxypropylcellulose) (HPC)) was 109 % of control and 123 % of control. The T/C (dose: 80.0 micrograms/kg/injection, schedule: Q01DX005 (ip), vehicle: Klucel (hydroxypropylcellulose) (HPC)) was 163 % of control.

C[O][Sn]([O][Sn]([Cl])([c]1ccccc1)[c]1ccccc1)([c]1ccccc1)[c]1ccccc1 was tested, and the T/C [1] was 177 % of control and the T/C (dose: 100.0 mg/kg/injection, schedule: Q04DX003 (ip), vehicle: suspension in saline) was 106 % of control.

In the case of COC(=O)c1nc(N)nc(C(=O)OC)c1C(=O)c1ccc(F)cc1, the T/C (dose: 60.0 mg/kg/injection, schedule: Q01DX005 (ip), vehicle: Klucel (hydroxypropylcellulose) (HPC)) is reported as 101 % of control and the T/C (dose: 120.0 mg/kg/injection, schedule: Q01DX005 (ip), vehicle: Klucel (hydroxypropylcellulose) (HPC)) is reported as 102 % of control.
